From patent US7659289B2, “Hydroxyethylene-based β-secretase inhibitors and use thereof” (CoMentis, Inc., priority 2004, dated 2010)
pKi: −log10 of the molar value.

Legend:
memapsin 2 = memapsin 2 (Homo sapiens, UniProt P56817); experiment: Inhibition of memapsin 2 beta-secretase activity toward fluorogenic substrate FS-2; type: biochemical; details: pH 4, 37° C., 20 minutes pre-incubation, fluorogenic substrate FS-2, tight-binding model; read-out: M2 Ki
Cathepsin D = Cathepsin D (Homo sapiens, UniProt P07339); experiment: Inhibition of cathepsin D activity (MALDI-TOF, substrate peptide […]); type: biochemical; details: pH 4.1, 37 degrees C., read-out: Cath D Ki
Sequence of Cathepsin D (P07339 65-412, species assumed): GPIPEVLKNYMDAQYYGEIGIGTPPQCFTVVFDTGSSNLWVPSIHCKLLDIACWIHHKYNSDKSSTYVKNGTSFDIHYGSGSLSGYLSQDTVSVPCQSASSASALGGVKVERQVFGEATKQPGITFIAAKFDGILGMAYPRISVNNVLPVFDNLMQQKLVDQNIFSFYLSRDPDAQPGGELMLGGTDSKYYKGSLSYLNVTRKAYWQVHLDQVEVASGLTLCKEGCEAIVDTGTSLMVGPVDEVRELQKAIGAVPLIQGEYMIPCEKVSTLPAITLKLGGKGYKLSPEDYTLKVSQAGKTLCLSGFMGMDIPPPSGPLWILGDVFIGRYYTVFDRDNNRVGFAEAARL

Sequence of memapsin 2 (P56817 46-501): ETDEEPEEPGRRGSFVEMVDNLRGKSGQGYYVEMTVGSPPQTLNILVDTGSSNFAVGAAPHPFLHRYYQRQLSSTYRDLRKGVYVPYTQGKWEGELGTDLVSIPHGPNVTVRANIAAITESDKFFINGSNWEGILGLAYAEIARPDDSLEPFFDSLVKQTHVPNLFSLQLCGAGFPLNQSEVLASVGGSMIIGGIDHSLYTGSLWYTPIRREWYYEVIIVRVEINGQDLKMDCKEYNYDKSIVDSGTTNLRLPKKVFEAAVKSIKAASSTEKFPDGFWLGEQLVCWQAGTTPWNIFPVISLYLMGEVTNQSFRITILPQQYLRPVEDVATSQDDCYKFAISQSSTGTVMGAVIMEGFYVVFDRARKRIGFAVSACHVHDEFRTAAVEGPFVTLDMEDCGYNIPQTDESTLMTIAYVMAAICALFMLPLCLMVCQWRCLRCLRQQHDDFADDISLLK

Row | Structure (SMILES) | pKi (memapsin 2) | pKi (Cathepsin D)
1 | Cc1cc(C)n(CCC(=O)N[C@@H](CC(N)=O)C(=O)N[C@@H](CC(C)C)[C@@H](O)C[C@@H](C)C(=O)NC2(C(=O)NCC(C)C)CCCC2)n1 [(S)-2-(3-(3,5-dimethyl-1H-pyrazol-1-yl)propanamido)-N1-((4S,5S,7R)-5-hydroxy-8-(1-(isobutylcarbamoyl)cyclopentylamino)-2,7-dimethyl-8-oxooctan-4-yl)succinamide] | < 6.22 | –
2 | COCC[C@H](NC(=O)[C@H](C)C[C@H](O)[C@H](CC(C)C)NC(=O)[C@H](CC(N)=O)NC(=O)CCn1nc(C)cc1C)C(=O)NCC(C)C [(S)-2-(3-(3,5-dimethyl-1H-pyrazol-1-yl)propanamido)-N1-((4S,5S,7R)-5-hydroxy-8-((S)-1-(isobutylamino)-4-methoxy-1-oxobutan-2-ylamino)-2,7-dimethyl-8-oxooctan-4-yl)succinamide] | < 6.22 | –
3 | COCO[C@@H](Cn1nc(C)cc1C)C(=O)N[C@@H](CNC(=O)OC(C)(C)C)C(=O)N[C@@H](CC(C)C)[C@@H](O)C[C@@H](C)C(=O)N[C@H](C(=O)NCC(C)C)C(C)C [tert-butyl (S)-2-((S)-3-(3,5-dimethyl-1H-pyrazol-1-yl)-2-(methoxymethoxy)propanamido)-3-((4S,5S,7R)-5-hydroxy-8-((S)-1-(isobutylamino)-3-methyl-1-oxobutan-2-ylamino)-2,7-dimethyl-8-oxooctan-4-ylamino)-3-oxopropylcarbamate] | 6.22 to 7.00 | > 7.00
4 | Cc1csc(C[C@H](C)C(=O)N[C@@H](CC(=O)O)C(=O)N[C@@H](CC(C)C)[C@@H](O)C[C@@H](C)C(=O)N[C@H](C(=O)NCC(C)C)C(C)C)n1 [(S)-4-((4S,5S,7R)-5-hydroxy-8-((S)-1-(isobutylamino)-3-methyl-1-oxobutan-2-ylamino)-2,7-dimethyl-8-oxooctan-4-ylamino)-3-((S)-2-methyl-3-(4-methylthiazol-2-yl)propanamido)-4-oxobutanoic acid] | 6.22 to 7.00 | 6.22 to 7.00
5 | Cc1csc(C[C@H](C)C(=O)N[C@@H](CNC(=O)OC(C)(C)C)C(=O)N[C@@H](CC(C)C)[C@@H](O)C[C@@H](C)C(=O)N[C@H](CS(=O)(=O)CC(C)C)C(C)C)n1 [tert-butyl (S)-3-((4S,5S,7R)-5-hydroxy-8-((S)-1-(isobutylsulfonyl)-3-methylbutan-2-ylamino)-2,7-dimethyl-8-oxooctan-4-ylamino)-2-((S)-2-methyl-3-(4-methylthiazol-2-yl)propanamido)-3-oxopropylcarbamate] | < 6.22 | < 6.22
6 | Cc1nc(COC(=O)N[C@@H](CC(N)=O)C(=O)N[C@@H](CC(C)C)[C@@H](O)C[C@@H](C)C(=O)N[C@H](C(=O)NCC(C)C)C(C)C)c(C)o1 [(2,5-dimethyloxazol-4-yl)methyl (S)-4-amino-1-((4S,5S,7R)-5-hydroxy-8-((S)-1-(isobutylamino)-3-methyl-1-oxobutan-2-ylamino)-2,7-dimethyl-8-oxooctan-4-ylamino)-1,4-dioxobutan-2-ylcarbamate] | 6.22 to 7.00 | > 7.00
7 | Cc1cc(C)n(CCC(=O)N[C@@H](CC(N)=O)C(=O)N[C@@H](CC(C)C)[C@@H](O)C[C@@H](C)C(=O)N[C@H](C(=O)NCC(C)C)C(C)C)n1 [(S)-2-(3-(3,5-dimethyl-1H-pyrazol-1-yl)propanamido)-N1-((4S,5S,7R)-5-hydroxy-8-((S)-1-(isobutylamino)-3-methyl-1-oxobutan-2-ylamino)-2,7-dimethyl-8-oxooctan-4-yl)succinamide] | 6.22 to 7.00 | > 7.00
8 | Cc1cc(C)n(CC(C)C(=O)N[C@@H](CC(N)=O)C(=O)N[C@@H](CC(C)C)[C@@H](O)C[C@@H](C)C(=O)N[C@H](C(=O)NCC(C)C)C(C)C)n1 (stereo partly drawn) [(2S)-2-(3-(3,5-dimethyl-1H-pyrazol-1-yl)-2-methylpropanamido)-N1-((4S,5S,7R)-5-hydroxy-8-((S)-1-(isobutylamino)-3-methyl-1-oxobutan-2-ylamino)-2,7-dimethyl-8-oxooctan-4-yl)succinamide] | 6.22 to 7.00 | –
9 | Cc1cc(C)n(CCC(=O)N[C@@H](CC(N)=O)C(=O)N[C@@H](CC(C)C)[C@@H](O)C[C@@H](C)C(=O)NC(C)(C)C(=O)NCC(C)C)n1 [(S)-2-(3-(3,5-dimethyl-1H-pyrazol-1-yl)propanamido)-N1-((4S,5S,7R)-5-hydroxy-8-(1-(isobutylamino)-2-methyl-1-oxopropan-2-ylamino)-2,7-dimethyl-8-oxooctan-4-yl)succinamide] | < 6.22 | –
10 | Cc1cc(C)n(CCC(=O)N[C@@H](CC(N)=O)C(=O)N[C@@H](CC(C)C)[C@@H](O)C[C@@H](C)C(=O)NC(CO)C(=O)NCC(C)C)n1 (stereo partly drawn) [(2S)-2-(3-(3,5-dimethyl-1H-pyrazol-1-yl)propanamido)-N1-((4S,5S,7R)-5-hydroxy-8-(3-hydroxy-1-(isobutylamino)-1-oxopropan-2-ylamino)-2,7-dimethyl-8-oxooctan-4-yl)succinamide] | < 6.22 | –
11 | Cc1nc(COC(=O)N[C@@H](CC(=O)N(C)C)C(=O)N[C@@H](CC(C)C)[C@@H](O)C[C@@H](C)C(=O)N[C@H](C(=O)NCC(C)C)C(C)C)c(C)o1 [(2,5-dimethyloxazol-4-yl)methyl (5S,8S,9S,11R,14S)-9-hydroxy-8-isobutyl-14-isopropyl-2,11,18-trimethyl-3,6,12,15-tetraoxo-2,7,13,16-tetraazanonadecan-5-ylcarbamate] | 6.22 to 7.00 | –
12 | Cc1cc(C)n(CCC(=O)N[C@@H](CC(=O)O)C(=O)N[C@@H](CC(C)C)[C@@H](O)C[C@@H](C)C(=O)N[C@H](C(=O)NCC(C)C)C(C)C)n1 [(S)-3-(3-(3,5-dimethyl-1H-pyrazol-1-yl)propanamido)-4-((4S,5S,7R)-5-hydroxy-8-((S)-1-(isobutylamino)-3-methyl-1-oxobutan-2-ylamino)-2,7-dimethyl-8-oxooctan-4-ylamino)-4-oxobutanoic acid] | 6.22 to 7.00 | –
13 | CC[C@H](Cc1nc(C)cs1)C(=O)N[C@@H](CNC(=O)OC(C)(C)C)C(=O)N[C@@H](CC(C)C)[C@@H](O)C[C@@H](C)C(=O)N[C@H](C(=O)NCC(C)C)C(C)C [tert-butyl (S)-3-((4S,5S,7R)-5-hydroxy-8-((S)-1-(isobutylamino)-3-methyl-1-oxobutan-2-ylamino)-2,7-dimethyl-8-oxooctan-4-ylamino)-2-((R)-2-((4-methylthiazol-2-yl)methyl)butanamido)-3-oxopropylcarbamate] | < 6.22 | –

Further lines, results first:

Row | pKi (memapsin 2) | pKi (Cathepsin D) | Structure (SMILES)
14 | > 7.00 | > 7.00 | Cc1nc(COC(=O)N[C@@H](CC(=O)OCc2ccccc2)C(=O)N[C@@H](CC(C)C)[C@@H](O)C[C@@H](C)C(=O)N[C@H](C(=O)NCC(C)C)C(C)C)c(C)o1 [(S)-benzyl 3-(((2,5-dimethyloxazol-4-yl)methoxy)carbonylamino)-4-((4S,5S,7R)-5-hydroxy-8-((S)-1-(isobutylamino)-3-methyl-1-oxobutan-2-ylamino)2,7-dimethyl-8-oxooctan-4-ylamino)-4-oxobutanoate]
15 | 6.22 to 7.00 | 6.22 to 7.00 | CC(=O)NC[C@H](NC(=O)OCc1nc(C)cs1)C(=O)N[C@@H](CC(C)C)[C@@H](O)C[C@@H](C)C(=O)N[C@H](C(=O)NCC(C)C)C(C)C [(4-methylthiazol-2-yl)methyl (5S,8S,9S,11R,14S)-9-hydroxy-8-isobutyl-14-isopropyl-11,18-dimethyl-2,6,12,15-tetraoxo-3,7,13,16-tetraazanonadecan-5-yicarbamate]
16 | > 7.00 | – | CCNC(=O)C[C@H](NC(=O)[C@@H](C)Cc1nc(C)cs1)C(=O)N[C@@H](CC(C)C)[C@@H](O)C[C@@H](C)C(=O)N[C@H](C(=O)NCC(C)C)C(C)C [(S)-N4-ethyl-N1-((4S,5S,7R)-5-hydroxy-8-((S)-1-(isobutylamino)-3-methyl-1-oxobutan-2-ylamino)-2,7-dimethyl-8-oxooctan-4-yl)-2-((S)-2-methyl-3-(4-methylthiazol-2-yl)propanamido)succinamide]
17 | 6.22 to 7.00 | > 7.00 | Cc1csc(C[C@H](C)C(=O)N[C@@H](CC(N)=O)C(=O)N[C@@H](CC(C)C)[C@@H](O)C[C@@H](C)C(=O)N[C@H](C(=O)NCC(C)C)C(C)C)n1 [(S)-N1-((4S,5S,7R)-5-hydroxy-8-((S)-1-(isobutylamino)-3-methyl-1-oxobutan-2-ylamino)-2,7-dimethyl-8-oxooctan-4-yl)-2-((S)-2-methyl-3-(4-methylthiazol-2-yl)propanamido)succinamide]
18 | 6.22 to 7.00 | > 7.00 | Cc1nc(COC(=O)N[C@@H](CC(=O)NCc2ccncc2)C(=O)N[C@@H](CC(C)C)[C@@H](O)C[C@@H](C)C(=O)N[C@H](C(=O)NCC(C)C)C(C)C)c(C)o1 [(2,5-dimethyloxazol-4-yl)methyl (5S,8S,9S,11R,14S)-9-hydroxy-8-isobutyl-14-isopropyl-11,18-dimethyl-3,6,12,15-tetraoxo-1-(pyridin-4-yl)-2,7,13,16-tetraazanonadecan-5-ylcarbamate]
19 | > 7.00 | > 7.00 | COCCOCCOC(=O)C[C@H](NC(=O)OCc1nc(C)oc1C)C(=O)N[C@@H](CC(C)C)[C@@H](O)C[C@@H](C)C(=O)N[C@H](C(=O)NCC(C)C)C(C)C [(S)-2-(2-methoxyethoxy)ethyl 3-(((2,5-dimethyloxazol-4-yl)methoxy)carbonylamino)-4-((4S,5S,7R)-5-hydroxy-8-((S)-1-(isobutylamino)-3-methyl-1-oxobutan-2-ylamino)2,7-dimethyl-8-oxooctan-4-ylamino)-4-oxobutanoate]
20 | 6.22 to 7.00 | < 6.22 | Cc1csc(COC(=O)N[C@@H](CC(N)=O)C(=O)N[C@@H](CC(C)C)[C@@H](O)C[C@@H](C)C(=O)N[C@H](C(=O)NCC(C)C)C(C)C)n1 [(4-methylthiazol-2-yl)methyl (S)-4-amino-1-((4S,5S,7R)-5-hydroxy-8-((S)-1-(isobutylamino)-3-methyl-1-oxobutan2-ylamino)-2,7-dimethyl-8-oxooctan-4-ylamino)-1,4-dioxobutan-2-ylcarbamate]
21 | > 7.00 | – | Cc1cc(C)n(CCC(=O)N[C@@H](CC(=O)OCc2ccccc2)C(=O)N[C@@H](CC(C)C)[C@@H](O)C[C@@H](C)C(=O)N[C@H](C(=O)NCC(C)C)C(C)C)n1 [(S)-benzyl 3-(3-(3,5-dimethyl-1H-pyrazol-1-yl)propanamido)-4-((4S,5S,7R)-5-hydroxy-8-((S)-1-(isobutylamino)-3-methyl-1-oxobutan-2-ylamino)-2,7-dimethyl-8-oxooctan-4-ylamino)-4-oxobutanoate]
